Assay results: patent publication US9387235B2, “Cosmetic preparations containing PTH fragments” (BASF Beauty Care Solutions France S.A.S., priority 2004, dated 2016)
No end group written: not given here.

Assays:
[1] = tested on: lumican; assay: Stimulation of the synthesis of lumican on aged human dermal fibroblasts (immunocytochemistry, image analysis); type: cell-based; details: aged human dermal fibroblasts in culture
Procedure: Human dermal fibroblasts cell suspension were prepared by standard digestion by collagenase of human adult dermis specimens collected from plastic surgery.
After repeated passages (Hayflick model) to mimic ageing in vitro, human dermal fibroblasts were seeded in DMEM for 2 days at 37° C., CO2=5%. Then, acetyl-QDVH (1 and 3 μg/ml) is introduced and after 6 days of incubation at 37° C., CO2=5%, the expression of the lumican synthesis was evaluated on glass slides by immunocytochemistry.
Quantification of the staining was carried out by image analysis.
The results are expressed as the sum of the product of number of pixels by green detected values (arbitrary unit).

[2] = tested on: protein kinase C (PKC); details: osteosarcoma cells of ROS 17/2 rats; Jouishomme et al. 1992, 1994; cited from earlier work
[3] = tested on: collagen type I; assay: Collagen type I gene expression in human dermal fibroblasts (quantitative RT-PCR); type: cell-based; details: for Ratio versus calibrator (collagen type I mRNA): incubation for 1 day, EF1α reference gene; for rate of collagen type I gene expression (in words): human dermal fibroblasts
Procedure: Human dermal fibroblasts are seeded and incubated for 3 to 5 days at 37° C., CO2=5%.
After exchange of cell culture medium to a defined cell culture medium with the products to be tested, incubation for 1 day at 37° C., CO2=5%. The recovering of cells and numeration before recovering of RNA from human dermal fibroblasts cultured in vitro.
The level of mRNA encoding the collagen type I was evaluated by quantitative RT-PCR or real time RT-PCR.
The results are firstly expressed by the crossing point (CP) which refers to the number of cycle required for the rising of a distinct fluorescence. Then the results of each sample, are calculated as a ratio referring to a reference gene or “house keeping” gene: CP of target/CP of reference gene. EF1α gene was used as internal control gene to normalise the mRNA evaluation.

[4] = tested on: human dermis fibroblasts; assay: Effects on the growth of human dermis fibroblasts (DNA cell content, Hoechst 33258); type: cell-based; details: for DNA after culture for 3 days / DNA after culture for 6 days: % relative to control medium, mean of four tests in triplicate
Procedure: The object of this test is to examine the regenerating and revitalising activities of cultures of human dermis fibroblasts in vitro.
Human dermis fibroblasts were incubated in a standard medium for cell cultures with foetal calf serum (FCS). After culture for one day at 37° C. and with a 5% content of CO2, the medium was changed for a standard medium with different concentrations of peptides. After further incubation for three days and six days, the number of living cells was established by establishing the DNA cell content with a fluorescent probe (Hoechst 33258).

[5] = tested on: human dermal fibroblast; assay: Human dermal fibroblast mRNA profile on cDNA-array (Panhuman 10K); type: cell-based; details: for Expression evolution / Log2 (treated/non-treated): 5 μg/ml
Procedure: The aim of this study is to detect the variation of mRNA profile of human dermal fibroblast induced by treatment with the PTH(29-32) peptide fragment.
Normal human dermal fibroblast were cultured in standard medium supplemented with foetal calf serum (FCS) during three days in a 5% CO2 atmosphere. After cultures, the medium was changed by a standard medium either supplemented with PTH(29-32) peptide fragment at 5 μg/ml or not. After an incubation of either 3 or 24 hours, cultures were arrested and total RNAs of the different cultures were extracted. The cDNAs obtained from peptide-treated RNAs or from non-treated RNAs were labelled with cyanine-3 and cyanine-5, respectively.
Mixture of treated and non-treated cDNAs were hybridised on commercially Panhuman® 10K (MW Biotech, Roissy Charles-de-Gaulle, France) cDNA-array allowing to study near to 10,000 gene expressions. After highly stringent washing, cyanine-3 and cyanine-5 fluorescences were measured, allowing to evaluate a […] expression ratio of each analyzed gene.
Results are expressed as Log2 of the ratio between the measured expression of genes in the treated vs non-treated conditions.

[6] = col1a1, alpha 1 type i collagen, 3 h incubation
[7] = cspg2, chondroitin sulfate 2 (versican), 3 h incubation
[8] = cspg2, chondroitin sulfate 2 (versican), 24 h incubation
[9] = ctgf, connective tissue growth factor, 3 h incubation
[10] = ctgf, connective tissue growth factor, 24 h incubation
[11] = fgf2, fibroblast growth factor 2, 3 h incubation
[12] = gpc1, glypican 1 precursor, 3 h incubation
[13] = gpc1, glypican 1 precursor, 24 h incubation
[14] = itga2b, integrin alpha 2b, 3 h incubation
[15] = itgb4, integrin, beta 4, 24 h incubation
[16] = itgb5, integrin, beta 5, 3 h incubation
[17] = itgb5, integrin, beta 5, 24 h incubation
[18] = nid, nidogen (enactin), 3 h incubation
[19] = nid, nidogen (enactin), 24 h incubation
[20] = tgfbr3, transforming growth factor, beta receptor III (betaglycan), 3 h incubation
[21] = tgfbr3, transforming growth factor, beta receptor III (betaglycan), 24 h incubation
[22] = thbs1, thrombospondin 1, 24 h incubation
[23] = timp1, tissue inhibitor of metalloproteinase 1, 3 h incubation

## IL-4: IL4 (positive control) obtained from SIGMA [reference compound]
[1]
  lumican expression (in words): increase of lumican expression

## Leu-Gln-Asp-Val-His-Asn-Phe (LQDVHNF; Fragment of a parathyroid hormone) [PTH region (28 to 34)]
[2]
  activation of protein kinase C (in words): stimulator of the protein kinase C (PKC)

## TGFβ [reference compound]
[3]; 10 ng/ml
  Ratio versus calibrator (collagen type I mRNA): 2.12
[3]
  rate of collagen type I gene expression (in words): strongly enhanced

## Gln-Asp-Val-His (QDVH; Fragment of a parathyroid hormone)
[4]; fibroblasts cultivated from biopsies of healthy adult subjects
  growth of human dermis fibroblasts (in words): stimulates the growth of human dermis fibroblasts
[4]; peptide 0.001 %
  DNA after culture for 3 days: 162%
  DNA after culture for 6 days: 119%
[4]; peptide 0.003 %
  DNA after culture for 3 days: 155%
  DNA after culture for 6 days: 115%
[4]; without any change in the cell culture medium
  persistence of growth-stimulating activity (in words): still detectable after 6 days
[2]
  activation of protein kinase C (in words): minimum domain of PTH in a position to function fully in the activation of PKC
[5]; bgn, biglycan, 3 h incubation
  Expression evolution: increase
  Log2 (treated/non-treated): 2.16
[5]; bgn, biglycan, 24 h incubation
  Expression evolution: increase
  Log2 (treated/non-treated): 0.66
[5]; [6]
  Expression evolution: increase
  Log2 (treated/non-treated): 0.93
[5]; [7]
  Expression evolution: increase
  Log2 (treated/non-treated): 1.32
[5]; [8]
  Expression evolution: increase
  Log2 (treated/non-treated): 1.20
[5]; [9]
  Expression evolution: increase
  Log2 (treated/non-treated): 0.77
[5]; [10]
  Expression evolution: increase
  Log2 (treated/non-treated): 0.74
[5]; [11]
  Expression evolution: increase
  Log2 (treated/non-treated): 0.86
[5]; [12]
  Expression evolution: no variation
  Log2 (treated/non-treated): −0.17
[5]; [13]
  Expression evolution: increase
  Log2 (treated/non-treated): 0.73
[5]; growth factors, extra-cellular matrix components, DEJ components
  expression of fibroblast genes (in words): stimulates the expression of some genes
[5]; [14]
  Expression evolution: increase
  Log2 (treated/non-treated): 0.50
[5]; itga2b, integrin alpha 2b, 24 h incubation
  Log2 (treated/non-treated): 0.15
[5]; [15]
  Expression evolution: increase
  Log2 (treated/non-treated): 1.15
[5]; [16]
  Expression evolution: no variation
  Log2 (treated/non-treated): 0.05
[5]; [17]
  Expression evolution: increase
  Log2 (treated/non-treated): 0.68
[5]; [18]
  Expression evolution: increase
  Log2 (treated/non-treated): 1.76
[5]; [19]
  Expression evolution: increase
  Log2 (treated/non-treated): 0.58
[5]; [20]
  Expression evolution: increase
  Log2 (treated/non-treated): 2.00
[5]; [21]
  Expression evolution: increase
  Log2 (treated/non-treated): 1.54
[5]; [22]
  Expression evolution: increase
  Log2 (treated/non-treated): 1.52
[5]; [23]
  Expression evolution: increase
  Log2 (treated/non-treated): 0.15
[5]; timp1, tissue inhibitor of metalloproteinase 1, 24 h incubation
  Log2 (treated/non-treated): −0.25

## acetyl-Gln-Asp-Val-His (Ac-QDVH) [Acetyl-QDVH, acetylated PTH (29-32) peptide fragment]
[1]; listed as acetyl-Gln-Asp-Val-His
  lumican expression (in words): increase of lumican expression
[1]; listed as acetyl-QDVH
  lumican expression (in words): significantly stimulated the expression of lumican with a dose-dependent effect
[3]; 3 μg/ml
  Ratio versus calibrator (collagen type I mRNA): 1.05
[3]; 10 μg/ml
  Ratio versus calibrator (collagen type I mRNA): 1.18
[3]
  rate of collagen type I gene expression (in words): significantly enhanced
